Consider 73 compounds from PubChem BioAssay AID179 (DTP/NCI, 2004).

Calls of active or inactive are those of the source.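 The calls were made as follows: active = compounds giving half or more protection of infected cells from virus-caused growth loss, again on retest; inactive = the rest.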

The assay has as its system CEM cells HIV-1 protection, formazan growth assay. As to the kind of experiment: NCI AIDS Antiviral Assay. As to conditions: for IC50: measured here: growth of uninfected CEM cells. The method in brief: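 Human CEM cells, uninfected and HIV-1-infected, received five drug concentrations, and growth was read by soluble formazan assay. Compounds giving at least 50% protection were retested; reproducible 100% protection defined confirmed active.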

A word on the EC50: it is the concentration that produces a half-maximal response. For orientation: IC50 means the concentration at which inhibition is half-maximal. Low readings indicate inhibition by little substance, high ones a need for much substance. For the compound `COc1ccc(C2C3=C(COC3=O)Oc3cc4c(cc32)OCO4)cc1OC` (centres undefined), the EC50 is more than 20 µM and the IC50 was 0.603 µM. Turning to `CC1Cc2c(N)nc(N3CCOCC3)nc2NC1=O` (centres undefined), the outcome was inactive. With `COC(=O)/C=C\C1C(C(=O)OC)C2(C(=O)OC)CCC1(C(=O)OC)N2` (centres undefined), the result was inactive. As for `CCOc1nc(-c2ccccc2)cc(-c2ccc(N3CCOCC3)cc2)c1C#N`, the EC50 is more than 200 µM and the IC50 amounted to 112 µM. Take `CCCCCCCCCCNC(=S)OCCCC`: the outcome was inactive. For the compound `Cc1ccc(SSCCN)cc1`, the EC50 is more than 200 µM and the IC50 was found to be 11.7 µM. For `O=C(NNC(=O)c1ccccc1O)c1ccco1`, in that order: more than 200 µM and 32.4 µM. The matching figures for `N#CC1(C#N)C(C#N)(C#N)C12CCCCC2Cl` (centres undefined): more than 20 µM and more than 20 µM.

In the case of `CCOC(=O)C1Cc2c(ccc(OC)c2OC)C(=O)C1N` (centres undefined), the result was inactive. The same measure, in the same setting: the result for `O=C(N/C(=C\c1cccc([N+](=O)[O-])c1)c1nc2c3c(ccc2[nH]1)C(=O)c1ccccc1C3=O)c1ccccc1` reads “inactive”.

On to `O=C1c2c(ccc3c2CCCC3)CC12Cc1ccccc1C2`, for which the EC50 is more than 200 µM and the half-inhibitory concentration (IC50) was 22.4 µM. With `CN1CCc2c([nH]c3ccccc23)C1`, the EC50 is more than 200 µM and the IC50 is more than 200 µM. With `CCn1cnnc1-c1nsc2ccccc12`, the EC50 was more than 81.3 µM and the concentration for half-maximal inhibition (IC50) came out at 75.9 µM. With `N#CC(C(=O)C(N)=O)c1ccccc1Cl` (centres undefined), the EC50 was more than 427 µM and the half-maximal inhibitory concentration (IC50) was more than 427 µM.

For the compound `NC12CC3CC(C1)CC(Cl)(C3)C2`, the EC50 was more than 1120 µM and the IC50 was more than 1120 µM. Take `Cc1nc2c(nc1C)C(=O)C(N(C)C)=CC2=O`: the outcome was inactive. As for `CSCCCNC(=O)c1csc(-c2csc(CCNC(=O)CNC(=O)CNC(=O)OC(C)(C)C)n2)n1`, the EC50 was more than 447 µM and the half-inhibitory concentration (IC50) was found to be 214 µM. For the compound `N#Cc1c(=O)c2cc([N+](=O)[O-])ccc2n2c1[nH]c1ccccc12`, the EC50 was more than 200 µM and the half-inhibitory concentration (IC50) stood at 3.55 µM.

In the case of `COc1cc(/C=C2\SC(=S)N(C=C3C(=O)NC(=O)NC3=O)C2=O)cc(OC)c1OC`, the EC50 is more than 200 µM and the IC50 was 23.4 µM. For the compound `COc1ccc(-c2c3c(n(C4OC(CO)C(O)C(O)C4O)c(=S)c2C#N)CC(C)(C)CC3=O)cc1` (centres undefined), the EC50 is more than 200 µM and the IC50 came out at 105 µM. In the case of `CC1c2c(Cl)nc3ccccc3c2Oc2c1c(Cl)nc1ccccc21`, the EC50 is more than 14.1 µM and the IC50 was more than 14.1 µM. `O=c1[nH]c2nn(-c3ccccc3)cc2c(=O)n1OS(=O)(=O)c1ccccc1`: the EC50 is more than 200 µM and the IC50 was more than 200 µM.

For the compound `Cc1ccccc1N1C(N)=C(C#N)C(C#N)(C#N)C1c1ccccc1` (centres undefined), the EC50 was more than 200 µM and the IC50 came to 12 µM. `CCOC(=O)c1c(SCCN2CCOCC2)n(-c2ccccc2)c(=S)n(-c2ccccc2)c1=O`: the EC50 is more than 27.5 µM and the IC50 was more than 27.5 µM.

With `COc1ccc(-c2nc3ccc([N+](=O)[O-])cc3c(=O)[nH]2)cc1`, the outcome was inactive. Consider `COc1ccc(C[C@H](N)C(=O)N2C[C@@H](CO)C[C@@H](n3cnc4c(N(C)C)ncnc43)C2)cc1`, for which the EC50 was more than 275 µM and the IC50 was more than 275 µM. Consider `O=C1/C(=C/c2ccc(O)c(O)c2)CCc2ccccc21`, for which the EC50 was more than 162 µM and the 50% inhibitory concentration (IC50) was 2.4 µM. Turning to `OC(C#CC(O)(c1ccccc1)c1ccccc1)(c1ccccc1)c1ccccc1`, the EC50 is more than 200 µM and the IC50 was determined as 11 µM.

Take `C[n+]1c(-c2ccc(/C=C/C=N\NC(=O)c3ccc(C(=O)N/N=C\C=C\c4ccc(-c5cn6ccccc6[n+]5C)cc4)cc3)cc2)cn2ccccc21`: the EC50 is more than 9.77 µM and the IC50 is more than 9.77 µM. Take `CC1=CC2(O)OC3(CC2=C(C)C)C(C)CCC13` (centres undefined): the EC50 is more than 200 µM and the IC50 is more than 200 µM. Take `OC(Cc1cc(CC(O)(C(F)(F)F)C(F)(F)F)nc(CC(O)(C(F)(F)F)C(F)(F)F)c1)(C(F)(F)F)C(F)(F)F`: the EC50 is more than 200 µM and the half-maximal inhibitory concentration (IC50) stood at 1.02 µM. Consider `NS(=O)(=O)c1nnc(NC(=O)Nc2ccc(Cl)c(Cl)c2)s1`, for which the EC50 is more than 200 µM and the half-maximal inhibitory concentration (IC50) came to 26.3 µM.

Take `CC(C)CCCC(C)[C@H]1CCC2[C@@H]3CCC4Nc5nocc5C[C@]4(C)C3CC[C@@]21C` (some centres undefined): the outcome was inactive. Take `O=C(CC(=O)N1N=C(N(c2ccccc2)c2ccccc2)CC1c1ccccc1)Nc1cccc(Cl)c1` (centres undefined): the EC50 is 25.1 µM and the IC50 is more than 200 µM. As for `Cc1ncc([N+](=O)[O-])n1CCO`, the EC50 is more than 200 µM and the IC50 was more than 200 µM. As for `CCC12CCCN(Cc3ccccc3)C1c1c(n(C)c3ccccc13)[C@H](C(=O)OC)C2` (some centres undefined), the EC50 is more than 12.6 µM and the IC50 is more than 12.6 µM.

Take `COc1ccccc1NC(=S)NNC(=O)c1cc(-c2ccccc2)nc2ccccc12`: the EC50 was more than 200 µM and the IC50 was found to be 11.5 µM. For the compound `CC(C)=NOC(=O)CNC(=O)C(Cc1ccccc1)NC(=O)C(C)NC(=O)OC(C)(C)C` (centres undefined), the EC50 was more than 200 µM and the IC50 is more than 200 µM. In the case of `O=C1C2=C(C(c3ccccc3)=C1c1ccccc1)c1ccccc1C1(c3ccccc3)C2=C(O)C(c2ccccc2)=C1c1ccccc1` (centres undefined), the outcome was inactive. As for `COc1ccc(S(=O)(=O)NNS(C)(=O)=O)cc1OC`, the EC50 is more than 40.7 µM and the IC50 was more than 40.7 µM.

`CCCNCC(=O)O[C@]1(CC)C(=O)OCc2c1cc1n(c2=O)Cc2cc3ccccc3nc2-1`: the EC50 is more than 10 µM and the IC50 was found to be 0.0525 µM. Turning to `O=C(O)/C=C/n1c2ccccc2c(=O)c2ccccc21`, the EC50 is more than 70.8 µM and the half-maximal inhibitory concentration (IC50) was more than 70.8 µM. `CC1=Cc2cc3[n-]c(cc4nc(cc5[n-]c(cc1n2)cc5C)C(C)=C4CCC(=O)O)c(CCC(=O)O)c3C.[Pd+2]`: the EC50 was more than 11.7 µM and the IC50 was determined as 1.02 µM. Regarding `CC(O)C1(CNc2cc(Cl)nc(N)n2)CCCCC1` (centres undefined), the EC50 was more than 200 µM and the IC50 came out at 85.1 µM.

Consider `NNC1=Nc2ccccc2N=C2CCSCC21` (centres undefined), for which the EC50 is more than 200 µM and the IC50 stood at 178 µM. As for `Cc1c(-c2ccccc2)sc(/N=C/c2cc(Br)cc(Br)c2O)c1C#N`, the EC50 was more than 20 µM and the IC50 was determined as 0.708 µM. Regarding `C=C(C)C1CC2C(C)=C(OC(C)=O)C1n1c(=O)c3cc4ccccc4cc3c(=O)n12` (centres undefined), the EC50 is more than 46.8 µM and the IC50 was more than 46.8 µM. As to `CN1CC(C)(C)C(=O)c2ccccc21`, the EC50 is more than 200 µM and the IC50 is more than 200 µM. On to `O=C(O)Cc1cccc2c(=O)c(-c3ccccc3)coc12`, for which the EC50 is more than 200 µM and the IC50 is more than 200 µM. Regarding `Cc1cc(S(=O)(=O)Nc2nnc3c4ccccc4ccn23)c(S)cc1Cl`, the EC50 was 155 µM and the IC50 was more than 200 µM. On to `O=C(OCc1ccccc1)N1N=NC2C1C1CC(OCc3ccccc3)(OCc3ccccc3)C2O1` (centres undefined), for which the EC50 is more than 14.8 µM and the IC50 is more than 14.8 µM. Regarding `CCN1CCC(O)(/C=C/c2ccc(Cl)c(Cl)c2)C(C(=O)/C=C/c2ccc(Cl)c(Cl)c2)C1` (centres undefined), the EC50 is more than 25.1 µM and the IC50 was 0.513 µM. As to `C[n+]1c2ccccc2c(NC(CCC(N)=O)C(=O)O)c2ccccc21` (centres undefined), the outcome was inactive. Consider `Cc1cn(C2CC(OC(c3ccccc3)(c3ccccc3)c3ccccc3)C(CO)O2)c(=O)[nH]c1=O` (centres undefined), for which the EC50 is more than 200 µM and the IC50 is 10.5 µM.

As to `COc1cc(C(=O)O)c(C(=O)c2ccc([N+](=O)[O-])cc2)cc1OC`, the EC50 is more than 200 µM and the IC50 was more than 200 µM. For the compound `Cc1ccccc1-n1c(C)nc2ccccc2c1=O`, the EC50 was more than 269 µM and the IC50 is more than 269 µM. On to `O=[N+]([O-])c1ccc(S(=O)(=O)N=Ic2ccccc2)cc1`, for which the EC50 was more than 200 µM and the IC50 is more than 200 µM.

On to `COc1cc(-c2nn3c(=O)n(-c4ccc(Cl)cc4)c(=O)nc3s2)cc(OC)c1OC`, for which the EC50 is more than 0.813 µM and the 50% inhibitory concentration (IC50) is more than 0.813 µM. As for `CCOC(=O)N1CCC2(CC1)C[C@@](C(C)=O)(c1ccccc1)C(C)O2` (some centres undefined), the EC50 is more than 200 µM and the IC50 is more than 200 µM. Consider `CN1CCCCC1CCN1c2ccccc2Sc2ccc(S(C)=O)cc21` (centres undefined), for which the half-maximal effective concentration (EC50) was 166 µM and the IC50 stood at 219 µM.

As for `Clc1ccc(N=c2ccc3ccccc3[oH+]2)cc1.Clc1ccc(N=c2ccc3ccccc3[oH+]2)cc1.[Co]`, the outcome was inactive. On the same count and under the same terms, then `Cc1nn(C(=O)c2c(O)cccc2Cl)c(C)c1N=Nc1ccccc1`, with “inactive”. In the case of `CC(=O)NC(CCCNC(=O)NCCCl)C(=O)NCc1ccccc1` (centres undefined), the EC50 was more than 676 µM and the IC50 was more than 676 µM. For `COc1ccc(/C=C/C(=O)c2cc(Cl)cc(Cl)c2O)cc1OC`, the EC50 was more than 200 µM and the IC50 was found to be 1.05 µM. For `Cc1ccc(S(=O)(=O)N/N=C2\C3CC4CC(C3)C2C4)cc1` (centres undefined), in that order: more than 200 µM and 95.5 µM. With `COC(=O)C1=NC(=N)N=C(C(=O)OC)C12C(=O)Cc1ccccc12` (centres undefined), the EC50 is 339 µM and the IC50 was determined as 398 µM.

`COC(=O)c1nsc(OC)c1Cl`: the EC50 was more than 200 µM and the IC50 was more than 200 µM.

As for `Cc1c[nH]c(C(=O)O)c1-c1cccn1-c1ccc(Cl)cc1[N+](=O)[O-]`, the EC50 is more than 200 µM and the IC50 came to 87.1 µM. For `COc1cc2c(cc1O)C(=O)OC1CC=C3CC[N@@+](C)([O-])[C@H]3C21` (some centres undefined), the EC50 is more than 195 µM and the IC50 was more than 195 µM. On to `CCSc1c(S)cnn(C)c1=O`, for which the EC50 was 23.4 µM and the IC50 was determined as 30.9 µM. As for `Cn1c(=O)oc2cc(C(=S)N3CCCCC3)ccc21`, the EC50 is more than 200 µM and the IC50 was more than 200 µM. Regarding `O=C(O)c1ccc2c(c1)CC1(C2)Cc2ccccc2C1=O` (centres undefined), the EC50 was more than 200 µM and the IC50 is more than 200 µM. On to `COCOc1ccc(C(=O)Oc2cccc3c2OC(C)(C)O3)c(OCOC)c1`, for which the EC50 was more than 200 µM and the IC50 was determined as 35.5 µM.
